Measured values from patent US20260007679A1, “METHODS OF TREATING CANCER USING 3-(4-((4-(MORPHOLINOMETHYL)BENZYL)OXY)-1-OXOISOINDOLIN-2-YL)PIPERIDINE-2,6-DIONE” (Celgene Corporation, priority 2012, published 2026).
Like-named read-outs stand apart in the source and are kept apart here.

How the values were obtained:
Assay type in all cases: cell-based
[1] = test system: anti-CD3-stimulated human T cells; assay: Cytokine production by T cells (multi-plex CBA); settings: for IL-10 production at high concentration: >10 nM; for concentrations that enhanced IL-2, IL-3, IL-5, IL-10, IL-13, GM-CSF, IFN-γ, TNF-α and RANTES: for compound I RANTES at 10 nM
Method: T cells were isolated from buffy coat by negative selection using the RosetteSep® T Cell Enrichment Cocktail. The manufacturer's procedures were followed accordingly. All 96-well plates were pre-coated with […] anti-human CD3 antibody in 100 μl 1×PBS for 4 hours at 37° C. The plates were washed three times with RPMI-1640 Complete Media prior to the T cell assay. T cells were then plated in CD3 pre-coated plates at a density of 2.5×10^5 cells/well in 180 μl RPMI-1640 Complete Media. The cells were treated with 20 μl 10× titrated compounds at 10, 1, 0.1, 0.01, 0.001, 0.0001 and 0.00001 μM. Final DMSO concentrations were 0.25%. The plates were incubated for 48 hours at 37° C., 5% CO2. After 48 hours, the supernatants were harvested and tested by a multi-plex cytometric bead array (CBA) assay for the following cytokines/chemokines: IL-2, IL-3, IL-5, IL-10, IL-13, IL-15, IL-17a, GM-CSF, G-SCF, IFN-γ, TNF-α and RANTES. The CBA plates were analyzed on the Luminex IS100 instrument. Data from each donor was graphed using GraphPad Prism 5.0 software and expressed as mean pg/mL±SEM and % of DMSO control±SEM.

rat aorta = assay: Rat aorta assay
Method: Compounds I, I-R, and I-S were tested in various angiogenesis inhibition assays.

[2] = test system: megakaryocyte progenitor cells (normal human bone marrows); assay: Megakaryocyte colony formation assay; settings: for IC50: Homo sapiens, 14-16 days
Method: Colony formation assay was conducted with normal human bone marrows treated in semi-solid collagen matrix with compound/IL-3/IL-6/Tpo for 14-16 days, and the results are summarized in Table 7.

[3] = test system: Human umbilical vascular endothelial cells; assay: Growth factor-induced HUVEC proliferation assay; settings: for IC50: Homo sapiens, Endothelial cell
Method: Human Umbilical Vascular Endothelial Cells Proliferation Assay: Human umbilical vascular endothelial cells were thawed and grown in EGM2 medium until passage 3 to 6 for all proliferation assays. Human umbilical vascular endothelial cells were trypsinized, washed with 20% FBS/M199 medium and plated with the same medium at 10^4 cells/100 μL per well to 96-well cell culture plates. The plates were incubated overnight at 37° C. to allow cells to adhere. The cells were then starved in 1% FBS/M199 medium for 18 hours after washing with the same medium 3 times. For optimization of the concentration of the growth factors in the HUVEC proliferation assay, 100 µL/well of the 2× serial diluted growth factors, starting at 100 ng/mL, were added to HUVECs in duplicate for 72 hours at 37° C. in a humidified cell culture incubator with 5% CO2. For analysis of test compounds, a serial dilution of the test compounds in 0.4% DMSO/1% FBS/M199 medium in duplicate was made from the 10 mM stock. Fifty microliters per well of the serially diluted test compounds (10, 1.0, 0.1, 0.01, 0.001, 0.0001, 0.00001 μM) were added to the cells for 1 to 2 hours at 37° C. The final DMSO concentration in the cells is 0.1%. Then 50 μL of 4× final concentration of relative growth factors was added to each well in duplicate for 72 hours at 37° C. in a humidified cell culture incubator with 5% CO2. Thymidine incorporation was measured by adding one microcurie of 3H-thymidine (Amersham) in 20 μL medium to each well and incubated at 37° C. in a humidified cell culture incubator with 5% CO2 for 5 to 6 hours. The cells were then trypsinized and harvested onto UniFilter GF/C filter plates (Perkin Elmer) by using the cell harvester (Tomtec). After the plates were air dried, 20 μL/well of Microscint 20 (Packard) was added then the plates were analyzed in TopCount NXT (Packard). Each well was counted for one minute. The experiments were performed in duplicate in each of 3 donors.
(§1) The percentage inhibition of cell proliferation, tube formation, migration, and invasion was calculated by subtracting the result for unstimulated DMSO control from test sample results, averaging all replicates, and normalizing to the growth factor-stimulated DMSO control (0% inhibition). The IC50 values were calculated by using GraphPad Prism 5.0.

[4] = test system: Human umbilical vascular endothelial cells; assay: Growth factor-induced HUVEC invasion assay; settings: for IC50: Homo sapiens; for VEGF-, bFGF-, and HGF-induced HUVEC invasion: dose-dependent
Method: Human Umbilical Vascular Endothelial Cell Invasion Assay: In the HUVEC invasion assay, the concentration of human fibronectin is optimized to provide a suitable protein structure for adherent cells to attach to the membrane and allow free migration in response to an angiogenic stimulus (e.g. VEGF, bFGF, or HGF) in the lower chamber of the insert plate. HUVECs were starved in 0.1% BSA EBM2 medium for 6 hours after washing with the same medium 3 times. The cells were then trypsinized and centrifuged to remove the remaining trypsin. Then ˜0.5 to 1×10^6 cells in 125 μL/well and 125 μL of 8× serially diluted compounds (10, 1, 0.1, 0.01, 0.001 μM) were added to the upper chamber of the BD Falcon 24-well and 96-well insert plates in duplicate and incubated for ˜1 to 2 hours. (The plates contain a fluorescence blocking, microporous [3.0 μm pore size] PET membrane that has been evenly coated with human fibronectin.) Seven hundred fifty microliters of a 1.33× stock solution of VEGF (final concentration of 25 ng/mL), bFGF (final concentration of 10 ng/mL), or HGF (final concentration of 25 ng/mL) were then added to the lower chamber. The cells were incubated for 22±1 hours at 37° C. The migrated cells were stained with calcein AM at 4 μg/mL in HBSS containing 2% FBS, using 500 µL/well in 24-well plates and 200 µL/well in 96-well plates. The plates were incubated at 37° C. for 90 minutes and read in a fluorescence plate reader.
as §1

[5] = Bone Marrow ID 0090128, read-out: Immature Colony IC50
[6] = Bone Marrow ID 0090128, read-out: Intermediate Colony IC50
[7] = Bone Marrow ID 0090616, read-out: Immature Colony IC50
[8] = Bone Marrow ID 0090616, read-out: Intermediate Colony IC50
[9] = Bone Marrow ID 0090714, read-out: Immature Colony IC50
[10] = Bone Marrow ID 0090714, read-out: Intermediate Colony IC50
[11] = read-out: bFGF (10 ng/mL) IC50 Values, bFGF-induced proliferation
[12] = HGF-induced proliferation, read-out: HGF (25 ng/mL) IC50 Values
[13] = VEGF-induced proliferation, read-out: VEGF (25 ng/mL) IC50 Values
[14] = Endothelial cell, read-out: HGF-induced invasion IC50 Values
[15] = Endothelial cell, read-out: VEGF-induced invasion IC50 Values
[16] = Endothelial cell, read-out: bFGF-induced invasion IC50 Values
[17] = HUVEC, read-out: IC50, HUVEC invasion (growth factor not given)
[18] = HUVEC, read-out: IC50 for inhibition of VEGF induced HUVEC invasion

Structure (SMILES) | GM-CSF production, times those of control cells ([1]; 10 nM) | IL-2 production, times those of control cells ([1]; 10 nM) | IL-13 production, times those of control cells ([1]; 10 nM) | IL-10 production at high concentration [1] | anti-angiogenic activity in rat aorta assay (rat aorta) | IC50 [2, 5] | IC50 [2, 6] | IC50 [2, 7] | IC50 [2, 8] | IC50 [2, 9] | IC50 [2, 10] | inhibition of VEGF-, bFGF-, or HGF-induced HUVEC proliferation [3] | IC50 [3, 11] | IC50 [3, 12] | IC50 [3, 13] | IC50 [4, 14] | IC50 [4, 15] | IC50 [4, 16] | IC50 [4, 17] | IC50 [4, 18] | other results
O=C1CC[C@@H](N2Cc3c(OCc4ccc(CN5CCOCC5)cc4)cccc3C2=O)C(=O)N1 [Compound I-R, (R)-3-(4-((4-(morpholinomethyl)benzyl)oxy)-1-oxoisoindolin-2-yl)piperidine-2,6-dione] | 6 times | 15 times | 7 times | inhibited | modest anti-angiogenic activity | 10000 nM | > 10000 nM | 400 nM | > 10000 nM | 400 nM | > 10000 nM | did not inhibit | 76000 nM | 38000 nM | > 100000 nM | 450 nM | < 0.1 nM | 13 nM | 13 nM | < 0.3 nM | IL-10 production enhancement ([1]; 0.01 to 1 nM): ~6 fold; IL-5 production, times that of control cells ([1]; 1 to 100 nM): up to 2.5 times; concentrations that enhanced IL-2, IL-3, IL-5, IL-10, IL-13, GM-CSF, IFN-γ, TNF-α and RANTES [1]: ≥ 1 nM; VEGF-, bFGF-, and HGF-induced HUVEC invasion [4]: significantly inhibited
O=C1CC[C@H](N2Cc3c(OCc4ccc(CN5CCOCC5)cc4)cccc3C2=O)C(=O)N1 [Compound I-S, (S)-3-(4-((4-(morpholinomethyl)benzyl)oxy)-1-oxoisoindolin-2-yl)piperidine-2,6-dione] | 5 times | 18 times | 7 times | inhibited | modest anti-angiogenic activity | 80 nM | 9200 nM | 40 nM | 650 nM | 50 nM | 860 nM | did not inhibit | 52000 nM | 51000 nM | > 100000 nM | 19 nM | < 0.1 nM | < 0.1 nM | < 0.1 nM | < 0.3 nM | concentration at which enhancement of IL-5 production peaked [1]: 1 nM; IL-5 production, times over that of control cells ([1]; 1 nM): 6 times; concentrations that enhanced IL-2, IL-3, IL-5, IL-10, IL-13, GM-CSF, IFN-γ, TNF-α and RANTES [1]: ≥ 1 nM; effect on megakaryocyte progenitor cells [2]: inhibited megakaryocyte progenitor cells; concentrations with significant enhancement of proliferation ([3]; VEGF-treated HUVECs): 1 to 10 µM; VEGF-, bFGF-, and HGF-induced HUVEC invasion [4]: significantly inhibited
O=C1CCC(N2Cc3c(OCc4ccc(CN5CCOCC5)cc4)cccc3C2=O)C(=O)N1 (racemic) [Compound I, 3-(4-((4-(morpholinomethyl)benzyl)oxy)-1-oxoisoindolin-2-yl)piperidine-2,6-dione] | 6 times | 22 times | 6.5 times | inhibited | modest anti-angiogenic activity | 100 to 1000 nM | > 10000 nM | 60 nM | > 10000 nM | 50 nM | > 10000 nM | did not inhibit | 99000 nM | 24000 nM | > 100000 nM | 590 nM | 0.14 nM | 0.42 nM | 0.4 nM | < 0.3 nM | concentration at which enhancement of IL-5 production peaked [1]: 1 nM; GM-CSF production, times those of control cells ([1]; 1 nM): 3 times; IL-2 production, times those of control cells ([1]; 1 nM): 7 times; IL-5 production, times over that of control cells ([1]; 1 nM): 6 times; IL-13 production, times those of control cells ([1]; 1 nM): 5 times; IL-5 production enhancement ([1]; 10 nM): ≤ 2 fold; concentrations with significant enhancement of proliferation ([3]; bFGF-treated HUVECs): 0.01 to 1 µM; VEGF-, bFGF-, and HGF-induced HUVEC invasion [4]: significantly inhibited
